23 compounds from US9630958B2, “Triazine compounds” (Sphaera Pharma Pte. Ltd., priority 2012, dated 2017) can be followed below.

The target of one assay is T1, Recombinant mTOR (FRAP1) (Homo sapiens, UniProt P42345).
T1 construct: purchased Invitrogen
Description: mTOR in vitro kinase assay (TR-FRET, phosphorylation of GFP-4E-BP1). The assay is classed as biochemical. The note with it: for IC50: 8 μM ATP, 400 nM GFP-4E-BP1; for inhibition at 1 µM: 1 uM compound, read-out: mTOR % Inhib@1 uM. As for the experimental part:
Compounds were evaluated for mTOR activity using an in vitro kinase assay.
mTOR activity is measured in vitro by determining the level of phosphorylation of the protein substrate 4EBP-1. The phosphorylation of GFP-4E-BP1 at threonine residue is recognized by Ab Tb-Anti-p4EBP1, which results in time resolved fluorescence energy transfer (TR-FRET) between GFP and Terbium in the Ab-Protein complex.
Recombinant mTOR (FRAP1), Kinase reaction buffer, GFP-4E-BP1 and LanthaScreen Tb-anti-4E-BP1 (pThr46), TR FRET dilution buffer, Kinase Quench Buffer were obtained from Invitrogen.
Kinase reactions were performed in 10 μl volume in Corning white 384 well plates. […] The reaction was initiated by the addition of substrate (GFP-4E-BP1) and ATP at a final conc. of 400 nM and 8 μM ATP in the reaction respectively. The kinase reaction was allowed to proceed for 1 hour at room temperature before a 10 μL preparation of kinase quench buffer and Tb-labeled Antibody in TR-FRET dilution buffer was added. The final concentration of the antibody in the assay well is 2 nM and the final concentration of EDTA is 10 mM. The plate was incubated at room temperature for 1 h.
(§1) FRET signal was read in Envision Multilabel Reader with the following filters:
Excitation-330 nm and Emission 486 nm (donor) and 520 nm (acceptor).
TR FRET Ratio (Fluorescence 520 nm/Fluorescence 486 nm) was plotted against the concentration of inhibitor and data was fit to Non Linear Regression curve fit (sigmoidal dose response curve with variable slope-four parameters) using Graph Pad Prism 5.
Background: In TR-FRET formats the signal depends on donor and acceptor labels being close together.

Assay [1] addresses T2, PI3 Kinase alpha (p110 alpha/p85 alpha) (Homo sapiens, UniProt P42336).
T2 construct: purchased Invitrogen
Description: PI3K TR-FRET assay (Transcreener ADP2). It is filed as biochemical. To be noted: for IC50: PI3K alpha, 1 μM ATP, 50 μM PIP2; for inhibition at 1 µM: 1 uM compound, read-out: PI3K % Inhib@1 uM. How it is done:
Enzymatic activity of PI3K alpha was measured using Time resolved Fluorescence resonance energy transfer (TR-FRET) assay. This assay utilizes ADP detection as a means to screen inhibitor potency of compounds. The Transcreener ADP2 TR-FRET Red Assay is a competitive immunoassay for ADP with a far-red, TR-FRET readout and it has been used for this purpose. The assay can be used for any enzyme class that produces ADP (Kinases, ATPases). It consists of ADP HiLyte647 Tracer, ADP^2 Antibody-Tb conjugate (800 nM), stop & detect buffer, 5 mM ATP, 5 mM ADP. The ADP HiLyte647 Tracer is bound to an ADP^2 Antibody-Tb conjugate. The excitation of the terbium complex in the UV range results in energy transfer to the tracer and emission at a higher wavelength after a time delay ADP produced by the target enzyme displaces the tracer which causes decrease in TR-FRET.
The reaction buffer used for the assay was 50 mM HEPES, pH 7.4.3 mM MgCl2, 0.05% CHAPS, 50 mM NaCl, 2 mM DTT, 1 mM EGTA. PI3 Kinase alpha (p110 alpha/p85 alpha) and PIP2 Substrate (diC8,) were procured from Invitrogen and Echelon respectively.
Kinase reactions were performed in 10 μl volume in Corning white 384 well plates. […] Reaction was initiated by the addition of substrate (PIP2) and ATP at final conc. of 50 μM and 1 μM ATP in the reaction respectively. Kinase reactions were allowed to proceed for 1 hour at room temperature before a 10 μL preparation of Transcreener ADP detection mix was added. Plate was incubated at room temperature for 1 hr. ADP-ATP standard curves were also prepared.
as §1
Excitation-330 nm and Emission 615 nm (donor) and 665 nm (acceptor). TR FRET Ratio (Fluorescence 665 nm/Fluorescence 615 nm) was converted to amount of product formed using the standard curve generated. Percentage inhibition was calculated and plotted against the concentration of inhibitor and data was fit to Non Linear Regression curve fit (sigmoidal dose response curve with variable slope-four parameters) using Graph pad prism 5 and IC50 was calculated for the compound.

T1 sequence (P42345 1360-2549 limits assumed): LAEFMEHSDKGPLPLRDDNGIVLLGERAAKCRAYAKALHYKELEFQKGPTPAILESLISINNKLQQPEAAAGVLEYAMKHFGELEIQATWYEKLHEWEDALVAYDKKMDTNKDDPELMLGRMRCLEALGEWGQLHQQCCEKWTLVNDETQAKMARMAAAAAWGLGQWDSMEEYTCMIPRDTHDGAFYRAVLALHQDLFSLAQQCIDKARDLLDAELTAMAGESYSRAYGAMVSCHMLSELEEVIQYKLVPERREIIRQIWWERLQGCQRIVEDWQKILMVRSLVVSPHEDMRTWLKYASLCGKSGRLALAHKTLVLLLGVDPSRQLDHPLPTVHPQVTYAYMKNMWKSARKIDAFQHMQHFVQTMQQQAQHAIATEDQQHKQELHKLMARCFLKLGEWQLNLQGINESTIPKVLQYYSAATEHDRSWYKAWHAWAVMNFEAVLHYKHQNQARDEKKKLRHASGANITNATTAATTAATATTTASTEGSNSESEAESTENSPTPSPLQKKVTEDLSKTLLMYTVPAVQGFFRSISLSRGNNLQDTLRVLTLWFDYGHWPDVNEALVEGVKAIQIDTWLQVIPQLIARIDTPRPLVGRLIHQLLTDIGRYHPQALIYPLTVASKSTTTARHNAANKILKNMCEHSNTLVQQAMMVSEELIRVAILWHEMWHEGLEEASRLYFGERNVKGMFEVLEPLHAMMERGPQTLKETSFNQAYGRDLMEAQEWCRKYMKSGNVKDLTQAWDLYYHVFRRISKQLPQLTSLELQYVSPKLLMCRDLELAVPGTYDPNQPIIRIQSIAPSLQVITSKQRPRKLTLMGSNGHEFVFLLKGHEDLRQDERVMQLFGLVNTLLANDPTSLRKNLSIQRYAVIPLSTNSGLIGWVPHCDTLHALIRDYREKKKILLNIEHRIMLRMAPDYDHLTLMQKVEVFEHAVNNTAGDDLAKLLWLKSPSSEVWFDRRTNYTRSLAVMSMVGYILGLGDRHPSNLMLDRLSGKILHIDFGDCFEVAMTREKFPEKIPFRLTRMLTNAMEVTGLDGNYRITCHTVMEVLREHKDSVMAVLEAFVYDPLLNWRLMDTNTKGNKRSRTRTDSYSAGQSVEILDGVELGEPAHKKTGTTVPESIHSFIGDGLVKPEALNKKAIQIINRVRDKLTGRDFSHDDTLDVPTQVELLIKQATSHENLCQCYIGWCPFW
T2 sequence (P42336 whole entry): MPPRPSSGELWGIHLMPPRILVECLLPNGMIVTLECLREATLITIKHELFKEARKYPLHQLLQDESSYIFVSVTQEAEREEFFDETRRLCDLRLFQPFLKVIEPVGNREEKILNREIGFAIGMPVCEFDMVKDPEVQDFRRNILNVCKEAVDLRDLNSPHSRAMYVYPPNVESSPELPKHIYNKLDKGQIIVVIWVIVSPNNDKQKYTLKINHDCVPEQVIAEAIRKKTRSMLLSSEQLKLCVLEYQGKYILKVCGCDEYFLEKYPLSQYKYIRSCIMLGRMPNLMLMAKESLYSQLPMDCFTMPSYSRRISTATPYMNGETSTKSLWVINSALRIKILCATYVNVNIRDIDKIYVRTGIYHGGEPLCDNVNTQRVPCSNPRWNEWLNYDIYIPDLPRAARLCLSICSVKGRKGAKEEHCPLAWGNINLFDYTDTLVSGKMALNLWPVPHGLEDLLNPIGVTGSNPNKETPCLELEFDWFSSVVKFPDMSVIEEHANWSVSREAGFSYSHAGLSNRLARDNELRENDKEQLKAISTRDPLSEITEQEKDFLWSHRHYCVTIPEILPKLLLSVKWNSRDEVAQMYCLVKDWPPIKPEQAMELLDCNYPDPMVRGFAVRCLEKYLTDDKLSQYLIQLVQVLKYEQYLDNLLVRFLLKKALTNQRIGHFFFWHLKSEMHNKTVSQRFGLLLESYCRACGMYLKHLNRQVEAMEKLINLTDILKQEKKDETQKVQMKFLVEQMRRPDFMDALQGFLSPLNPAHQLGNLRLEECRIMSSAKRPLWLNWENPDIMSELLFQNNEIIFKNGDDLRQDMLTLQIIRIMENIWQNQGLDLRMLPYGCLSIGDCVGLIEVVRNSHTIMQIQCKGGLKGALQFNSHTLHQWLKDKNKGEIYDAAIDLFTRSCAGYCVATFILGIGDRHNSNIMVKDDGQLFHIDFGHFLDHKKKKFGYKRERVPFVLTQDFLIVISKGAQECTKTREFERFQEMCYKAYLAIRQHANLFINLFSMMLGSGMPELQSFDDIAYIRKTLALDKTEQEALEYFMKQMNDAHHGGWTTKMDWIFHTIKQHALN
T2 sequence (P27986 whole entry partner): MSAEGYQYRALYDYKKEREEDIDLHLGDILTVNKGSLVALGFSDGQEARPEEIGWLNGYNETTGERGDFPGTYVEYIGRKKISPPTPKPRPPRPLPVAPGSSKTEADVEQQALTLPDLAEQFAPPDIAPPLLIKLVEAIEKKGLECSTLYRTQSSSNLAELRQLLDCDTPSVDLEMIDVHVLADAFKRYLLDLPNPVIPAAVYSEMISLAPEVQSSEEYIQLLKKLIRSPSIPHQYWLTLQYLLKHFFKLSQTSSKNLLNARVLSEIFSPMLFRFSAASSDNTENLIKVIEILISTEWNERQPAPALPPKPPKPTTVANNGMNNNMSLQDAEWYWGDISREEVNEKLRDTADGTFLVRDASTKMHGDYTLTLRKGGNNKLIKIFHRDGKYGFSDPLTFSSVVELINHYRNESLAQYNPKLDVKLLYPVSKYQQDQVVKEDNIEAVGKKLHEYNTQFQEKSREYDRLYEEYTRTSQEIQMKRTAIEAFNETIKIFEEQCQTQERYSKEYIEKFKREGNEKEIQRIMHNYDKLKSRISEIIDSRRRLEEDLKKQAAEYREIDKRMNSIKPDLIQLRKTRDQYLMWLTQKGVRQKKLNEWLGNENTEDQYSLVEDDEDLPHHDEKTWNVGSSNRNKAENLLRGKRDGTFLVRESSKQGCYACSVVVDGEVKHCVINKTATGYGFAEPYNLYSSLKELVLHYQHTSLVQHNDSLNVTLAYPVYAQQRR

Regarding `C[C@@H]1OCCN(c2nc(Oc3ccc(C(=O)N(C)C)cc3F)nc(-c3cnc(N)s3)n2)[C@H]1C` [Compound 10053, 4-((4-(2-Aminothiazol-5-yl)-6-((2S,3S)-2,3-dimethylmorpholino)-1,3,5-triazin-2-yl)oxy)-3-fluoro-N,N-dimethylbenzamide], the figures for the IC50 (on Recombinant mTOR (FRAP1); in assay [1]) were below 1000 nM and above 1000 nM, respectively.
In the case of `CNC(=O)Nc1ncc(-c2nc(Oc3ccc(C(=O)N(C)C)cc3)nc(N3CCOC[C@@H]3C)n2)s1` [Compound 10091, (S)-N,N-dimethyl-4-((4-(3-methylmorpholino)-6-(2-(3-methylureido)thiazol-5-yl)-1,3,5-triazin-2-yl)oxy)benzamide], at Recombinant mTOR (FRAP1), the inhibition at 1 µM was above 50% and the IC50 (usually the concentration that gives 50% inhibition) was below 1000 nM. In assay [1], this compound displayed an IC50 below 1000 nM.
With `C[C@H]1CN(c2nc(Oc3ccc(C(=O)N(C)C)cc3)nc(-c3cnc(N)s3)n2)CCO1` [Compound 10127, 4-(4-(2-aminothiazol-5-yl)-6-((S)-2-methylmorpholino)-1,3,5-triazin-2-yloxy)-N,N-dimethylbenzamide], on Recombinant mTOR (FRAP1), the inhibition at 1 µM was above 50% and the half-maximal inhibitory concentration (IC50) was below 1000 nM. Further, in assay [1], the inhibition at 1 µM is above 50% and the IC50 was below 1000 nM.
`CN(C)C(=O)c1ccc(Oc2nc(-c3cnc(N)s3)nc(N3CCSCC3)n2)cc1` [Compound 10118, 4-(4-(2-aminothiazol-5-yl)-6-thiomorpholino-1,3,5-triazin-2-yloxy)-N,N-dimethylbenzamide]: the inhibition at 1 µM on Recombinant mTOR (FRAP1) was above 50%. Moreover, the IC50 on Recombinant mTOR (FRAP1) is above 3000 nM; in assay [1], above 1000 nM.
On to `C[C@H]1CN(c2nc(Oc3ccc(C(=O)N(C)C)cc3F)nc(-c3ccc(N)nc3)n2)[C@@H](C)CO1` [Compound 10097, 4-((4-(6-Aminopyridin-3-yl)-6-((2S,5S)-2,5-dimethylmorpholino)-1,3,5-triazin-2-yl)oxy)-3-fluoro-N,N-dimethylbenzamide], for which the concentration for half-maximal inhibition (IC50) at Recombinant mTOR (FRAP1) was below 1000 nM. Moreover, in assay [1], the inhibition at 1 µM was above 50% and the half-inhibitory concentration (IC50) is below 1000 nM.
As to `CNC(=O)c1ccc(Oc2nc(-c3cnc(N)s3)nc(N3CCOCC3)n2)cc1` [Compound 10193, 4-((4-(2-aminothiazol-5-yl)-6-morpholino-1,3,5-triazin-2-yl)oxy)-N-methylbenzamide], the inhibition at 1 µM on Recombinant mTOR (FRAP1) was below 50%. For the same compound, the IC50 in assay [1] is below 1000 nM.
With `C[C@H]1COCCN1c1nc(Oc2ccc(C(=O)N(C)C)cc2)nc(C2=CC=C(N)N(O)C2)n1` [Compound 10125], the inhibition at 1 µM (at Recombinant mTOR (FRAP1); in assay [1]) was below 50% in each case.
Turning to `C[C@H]1CN(c2nc(Oc3ccc(C(=O)N(C)C)cc3F)nc(-c3cnc4[nH]ccc4c3)n2)[C@@H](C)CO1` [Compound 10104, 4-((4-((2S,5S)-2,5-dimethylmorpholino)-6-(1H-pyrrolo[2,3-b]pyridine-5-yl)-1,3,5-triazin-2-yl)oxy)-3-fluoro-N,N-dimethylbenzamide], the IC50 (on Recombinant mTOR (FRAP1); in assay [1]) was below 1000 nM in each case.
In the case of `CN(C)C(=O)c1ccc(Oc2nc(-c3ccc(NN)nc3)nc(N3CCOCC3)n2)cc1` [Compound 10177, 4-((4-(6-hydrazinylpyridin-3-yl)-6-morpholino-1,3,5-triazin-2-yl)oxy)-N,N-dimethylbenzamide], in assay [1], the IC50 was below 1000 nM.
For `C[C@@H]1CN(c2nc(Oc3ccc(C(=O)N(C)C)cc3F)nc(-c3cnc(N)s3)n2)[C@H](C)CO1` [Compound 10205, 4-((4-(2-aminothiazol-5-yl)-6-((2R,5R)-2,5-dimethylmorpholino)-1,3,5-triazin-2-yl)oxy)-3-fluoro-N,N-dimethylbenzamide], the IC50 on Recombinant mTOR (FRAP1) is below 1000 nM.
For the compound `CN(C)C(=O)c1ccc(Oc2nc(-c3cnc(N)s3)nc(N3CCOCC34CCCC4)n2)c(F)c1` [Compound 10083, 4-((4-(2-Aminothiazol-5-yl)-6-(9-oxa-6-azaspiro[4.5]decan-6-yl)-1,3,5-triazin-2-yl)oxy)-3-fluoro-N,N-dimethylbenzamide], in assay [1], the concentration for half-maximal inhibition (IC50) was below 1000 nM.
Still for that read-out and setting: next, `CN(C)C(=O)N1CCC(COc2nc(-c3ccc(N)nc3)nc(N3CCOCC3)n2)C1` (stereo not drawn) [Compound 10187, 3-(((4-(6-aminopyridin-3-yl)-6-morpholino-1,3,5-triazin-2-yl)oxy)methyl)-N,N-dimethylpyrrolidine-1-carboxamide]: below 1000 nM.
In the case of `C[C@@H]1CN(c2nc(Oc3ccc(C(=O)N(C)C)cc3F)nc(-c3cnc(N)s3)n2)C[C@@H](C)O1` [Compound 10070, 4-((4-2-Aminothiazol-5-yl)-6-((2R,6R)-2,6-dimethylmorpholino)-1,3,5-triazin-2-yl)oxy-3-fluoro-N,N-dimethylbenzamide], the IC50 on Recombinant mTOR (FRAP1) is below 1000 nM.
In assay [1], `Nc1ncc(-c2nc(N3CCOCC3)nc(N3CCNC(=O)CC3)n2)s1` [Compound 10198, 1-(4-(2-aminothiazol-5-yl)-6-morpholino-1,3,5-triazin-2-yl)-1,4-diazepan-5-one] gave an IC50 below 1000 nM.
Same read-out and setting: next, `CN(C)C(=O)c1cccc(Oc2nc(-c3ccc(N)nc3)nc(N3CCOCC3)n2)c1` [Compound 10183, 3-((4-(6-aminopyridin-3-yl)-6-morpholino-1,3,5-triazin-2-yl)oxy)-N,N-dimethylbenzamide]: below 1000 nM.
Turning to `CC1COCCN1c1nc(Oc2ccc(C(=O)N(C)C)cc2F)nc(-c2ccc(N)nc2)n1` (stereo not drawn) [Compound 10207, 4-((4-(6-aminopyridin-3-yl)-6-(3-methylmorpholino)-1,3,5-triazin-2-yl)oxy)-3-fluoro-N,N-dimethylbenzamide], the IC50 on Recombinant mTOR (FRAP1) was below 1000 nM.
With `Nc1ccc(-c2nc(SCc3ccccc3)nc(N3CCOCC3)n2)cn1` [Compound 10175, 5-(4-(benzylthio)-6-morpholino-1,3,5-triazin-2-yl)pyridine-2-amine], the IC50 in assay [1] is below 1000 nM.
Turning to `C[C@H]1COCCN1c1nc(Oc2ccc(C(=O)N(C)C)cc2)nc(-c2cnc(NC(=O)c3cccnc3)s2)n1` [Compound 10094, (S)-N-(5-(4-(4-(dimethylcarbamoyl)phenoxy)-6-(3-methylmorpholino)-1,3,5-triazin-2-yl)thiazol-2-yl)nicotinamide], the inhibition at 1 µM in assay [1] is below 50%.
For `CN(C)C(=O)N1CCC(Oc2nc(-c3ccc(N)nc3)nc(N3CCOCC3)n2)C1` (stereo not drawn) [Compound 10186, 3-((4-(6-aminopyridin-3-yl)-6-morpholino-1,3,5-triazin-2-yl)oxy)-N,N-dimethylpyrrolidine-1-carboxamide], in assay [1], the IC50 was below 1000 nM.
In the case of `CN(C)C(=O)c1ccc(Oc2nc(-c3cnc(N)s3)nc(N3CCO[C@@H]4CCC[C@@H]43)n2)c(F)c1` [Compound 10206], the concentration for half-maximal inhibition (IC50) at Recombinant mTOR (FRAP1) was below 1000 nM.
On to `C[C@H]1CN(c2nc(Oc3ccc(C(=O)N(C)C)cc3F)nc(-c3cnc(N)s3)n2)[C@@H](C)[C@@H](C)O1` [Compound 10088, 4-((4-(2-Aminothiazol-5-yl)-6-((2R,3S,6S)-2,3,6-trimethylmorpholino)-1,3,5-triazin-2-yl)-oxy)-3-fluoro-N,N-dimethylbenzamide], for which the inhibition at 1 µM at Recombinant mTOR (FRAP1) is below 50%.
For `CN(C)C(=O)Cc1cccc(Oc2nc(-c3ccc(N)nc3)nc(N3CCOCC3)n2)c1` [Compound 10184, 2-(3-((4-(6-aminopyridin-3-yl)-6-morpholino-1,3,5-triazin-2-yl)oxy)phenyl)-N,N-dimethylacetamide], in assay [1], the IC50 was below 1000 nM.
Consider `C[C@H]1CN(c2nc(Oc3ccc(C(=O)N(C)C)cc3F)nc(-c3cnc(N)s3)n2)C[C@H](C)O1` [Compound 10084, 4-((4-2-Aminothiazol-5-yl)-6-((2S,6S)-2,6-dimethylmorpholino)-1,3,5-triazin-2-yl)oxy-3-fluoro-N,N-dimethylbenzamide], for which, at Recombinant mTOR (FRAP1), the half-maximal inhibitory concentration (IC50) was below 1000 nM.
